From US20190330224A1, “ACC INHIBITORS AND USES THEREOF” (Gilead Apollo, LLC, priority 2015, published 2019)
Converted amounts (≈) assume the structure as drawn. Read-outs that look alike come from different tables or passages of the source.

Assays:
[1] = molecular target: Human ACC2 (Homo sapiens, UniProt O00763); assay: In vitro ACC2 inhibition assay (ADP-Glo), human ACC2; format: biochemical; details: 5 nM ACC2, 20 μM ATP, 20 μM acetyl-CoA
[2] = molecular target: Fungal ACC2 (UniProt Q00955); details: read-out: Fungal ACC2 (IC50, in vitro ACC2 inhibition)
Sequence of Fungal ACC2 (Q00955 whole entry): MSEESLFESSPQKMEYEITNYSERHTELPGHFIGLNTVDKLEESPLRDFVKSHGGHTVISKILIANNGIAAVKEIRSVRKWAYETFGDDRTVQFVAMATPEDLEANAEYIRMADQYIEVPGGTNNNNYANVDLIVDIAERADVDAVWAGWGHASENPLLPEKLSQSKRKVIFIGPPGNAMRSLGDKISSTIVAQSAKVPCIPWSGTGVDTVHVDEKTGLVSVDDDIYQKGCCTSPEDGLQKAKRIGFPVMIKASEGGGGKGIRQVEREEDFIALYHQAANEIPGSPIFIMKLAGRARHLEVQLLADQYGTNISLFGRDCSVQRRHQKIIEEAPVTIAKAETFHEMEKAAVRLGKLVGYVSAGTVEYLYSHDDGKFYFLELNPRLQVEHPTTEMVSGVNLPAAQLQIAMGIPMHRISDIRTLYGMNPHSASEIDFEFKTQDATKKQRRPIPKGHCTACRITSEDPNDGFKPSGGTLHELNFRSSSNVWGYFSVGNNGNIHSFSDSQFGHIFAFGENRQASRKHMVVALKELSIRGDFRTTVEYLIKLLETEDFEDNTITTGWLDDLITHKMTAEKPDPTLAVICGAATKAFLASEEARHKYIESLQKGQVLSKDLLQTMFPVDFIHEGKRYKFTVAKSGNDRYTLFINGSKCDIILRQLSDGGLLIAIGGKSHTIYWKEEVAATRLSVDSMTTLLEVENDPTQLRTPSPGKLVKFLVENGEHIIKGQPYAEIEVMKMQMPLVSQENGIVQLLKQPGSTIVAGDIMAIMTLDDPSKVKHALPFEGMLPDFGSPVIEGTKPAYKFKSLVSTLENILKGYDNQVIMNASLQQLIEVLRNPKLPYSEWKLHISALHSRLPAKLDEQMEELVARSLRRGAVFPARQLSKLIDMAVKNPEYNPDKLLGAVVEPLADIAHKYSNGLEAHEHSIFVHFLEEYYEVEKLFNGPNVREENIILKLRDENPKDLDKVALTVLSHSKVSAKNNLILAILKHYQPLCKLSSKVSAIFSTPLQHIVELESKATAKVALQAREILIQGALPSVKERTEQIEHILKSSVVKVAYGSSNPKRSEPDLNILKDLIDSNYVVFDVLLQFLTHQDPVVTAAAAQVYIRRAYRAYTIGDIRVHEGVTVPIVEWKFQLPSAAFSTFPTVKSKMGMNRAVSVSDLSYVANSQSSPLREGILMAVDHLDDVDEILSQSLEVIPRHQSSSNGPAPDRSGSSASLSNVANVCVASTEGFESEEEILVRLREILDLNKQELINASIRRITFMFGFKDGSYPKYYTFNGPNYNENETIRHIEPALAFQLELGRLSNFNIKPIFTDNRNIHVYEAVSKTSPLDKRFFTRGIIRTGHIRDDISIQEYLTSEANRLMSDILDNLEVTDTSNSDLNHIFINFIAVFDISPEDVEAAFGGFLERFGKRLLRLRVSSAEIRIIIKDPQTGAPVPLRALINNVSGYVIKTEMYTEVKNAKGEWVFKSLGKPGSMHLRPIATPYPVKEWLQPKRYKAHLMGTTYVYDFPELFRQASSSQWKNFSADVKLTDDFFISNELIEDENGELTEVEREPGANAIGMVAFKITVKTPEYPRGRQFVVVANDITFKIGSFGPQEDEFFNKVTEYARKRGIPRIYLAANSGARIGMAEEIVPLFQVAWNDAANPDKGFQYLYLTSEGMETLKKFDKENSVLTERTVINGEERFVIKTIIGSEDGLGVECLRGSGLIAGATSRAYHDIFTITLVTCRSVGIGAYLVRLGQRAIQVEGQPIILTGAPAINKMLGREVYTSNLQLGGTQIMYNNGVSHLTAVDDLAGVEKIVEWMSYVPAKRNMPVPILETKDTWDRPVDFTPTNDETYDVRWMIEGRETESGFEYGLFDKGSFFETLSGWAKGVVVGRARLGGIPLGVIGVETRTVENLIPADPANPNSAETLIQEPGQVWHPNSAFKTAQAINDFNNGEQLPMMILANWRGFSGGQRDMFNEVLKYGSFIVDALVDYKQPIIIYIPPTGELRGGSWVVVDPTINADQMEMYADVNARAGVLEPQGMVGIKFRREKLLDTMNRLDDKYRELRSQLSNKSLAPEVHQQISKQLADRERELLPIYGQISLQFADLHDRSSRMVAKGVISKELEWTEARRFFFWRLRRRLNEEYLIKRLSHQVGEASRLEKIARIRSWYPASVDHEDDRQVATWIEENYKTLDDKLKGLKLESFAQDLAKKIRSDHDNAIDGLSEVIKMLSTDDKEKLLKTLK

[3] = system: C. parapsilosis ATCC 22019; assay: Anti-Fungal Activity Assay (broth microtiter MIC), C. parapsilosis; format: cell-based, Candida parapsilosis; details: for MIC: Lodderomyces parapsilosis, ATCC22019, 48 h, read-out: MIC C. parapsilosis ATCC 22019
Procedure: (§1) Compounds of the present invention were evaluated in an Anti-Fungal Activity Assay. An exemplary procedure for the assay, which measures the susceptibility of various Candida species to anti-fungal compounds, follows. Compounds to be tested (including fluconazole and amphotericin B) were dissolved in DMSO to obtain a solution having a concentration of 1 mg/mL. […] All species were grown from frozen stock by directly plating on to freshly prepared Sabouraud Dextrose agar (BD, Difco) and incubated overnight in ambient air at 35° C. for 24 h. A direct suspension was prepared in RPMI 1640+MOPS (Lonza, Biowhittaker) by taking individual colonies from the overnight cultures using sterile swabs soaked in sterile saline. The concentration of the suspension was determined using pre-determined standard curves. […] Broth microtiter MIC challenge plates were prepared following CLSI guidelines (M27-A3, Vol. 28 No. 14). The original CLSI guidelines focused on reading Candida MICs after 48 h of incubation. As reading after only 24 h offers a clear advantage of patient care, QC limits are being established for all drugs at 24 h. That being said there are no known interpretive breakpoints for amphotericin B at 24 h and the current fluconazole interpretive breakpoints are based on a 48 h reading. The MIC breakpoints for the test compounds were recorded at 48 h, and for the soraphen the 24 h time-point was added. All MIC determinations were achieved by visually comparing the growth found in the antibiotic challenged wells to that of the growth control.

[4] = system: C. krusei ATCC 6258; assay: Anti-Fungal Activity Assay (broth microtiter MIC), C. krusei; format: cell-based, Candida krusei; details: for MIC: Pichia kudriavzevii, ATCC6258, 48 h, read-out: MIC C. krusei ATCC 6258
Procedure: as §1

[5] = system: C. albicans ATCC 90028; assay: Anti-Fungal Activity Assay (broth microtiter MIC), C. albicans; format: cell-based, Candida albicans; details: for MIC: Candida albicans, ATCC90028, 48 h, read-out: MIC C. albicans ATCC 90028
Procedure: as §1

[6] = 3 replicates, MIC recorded at 48 h

Sequence of Human ACC2 (O00763 whole entry): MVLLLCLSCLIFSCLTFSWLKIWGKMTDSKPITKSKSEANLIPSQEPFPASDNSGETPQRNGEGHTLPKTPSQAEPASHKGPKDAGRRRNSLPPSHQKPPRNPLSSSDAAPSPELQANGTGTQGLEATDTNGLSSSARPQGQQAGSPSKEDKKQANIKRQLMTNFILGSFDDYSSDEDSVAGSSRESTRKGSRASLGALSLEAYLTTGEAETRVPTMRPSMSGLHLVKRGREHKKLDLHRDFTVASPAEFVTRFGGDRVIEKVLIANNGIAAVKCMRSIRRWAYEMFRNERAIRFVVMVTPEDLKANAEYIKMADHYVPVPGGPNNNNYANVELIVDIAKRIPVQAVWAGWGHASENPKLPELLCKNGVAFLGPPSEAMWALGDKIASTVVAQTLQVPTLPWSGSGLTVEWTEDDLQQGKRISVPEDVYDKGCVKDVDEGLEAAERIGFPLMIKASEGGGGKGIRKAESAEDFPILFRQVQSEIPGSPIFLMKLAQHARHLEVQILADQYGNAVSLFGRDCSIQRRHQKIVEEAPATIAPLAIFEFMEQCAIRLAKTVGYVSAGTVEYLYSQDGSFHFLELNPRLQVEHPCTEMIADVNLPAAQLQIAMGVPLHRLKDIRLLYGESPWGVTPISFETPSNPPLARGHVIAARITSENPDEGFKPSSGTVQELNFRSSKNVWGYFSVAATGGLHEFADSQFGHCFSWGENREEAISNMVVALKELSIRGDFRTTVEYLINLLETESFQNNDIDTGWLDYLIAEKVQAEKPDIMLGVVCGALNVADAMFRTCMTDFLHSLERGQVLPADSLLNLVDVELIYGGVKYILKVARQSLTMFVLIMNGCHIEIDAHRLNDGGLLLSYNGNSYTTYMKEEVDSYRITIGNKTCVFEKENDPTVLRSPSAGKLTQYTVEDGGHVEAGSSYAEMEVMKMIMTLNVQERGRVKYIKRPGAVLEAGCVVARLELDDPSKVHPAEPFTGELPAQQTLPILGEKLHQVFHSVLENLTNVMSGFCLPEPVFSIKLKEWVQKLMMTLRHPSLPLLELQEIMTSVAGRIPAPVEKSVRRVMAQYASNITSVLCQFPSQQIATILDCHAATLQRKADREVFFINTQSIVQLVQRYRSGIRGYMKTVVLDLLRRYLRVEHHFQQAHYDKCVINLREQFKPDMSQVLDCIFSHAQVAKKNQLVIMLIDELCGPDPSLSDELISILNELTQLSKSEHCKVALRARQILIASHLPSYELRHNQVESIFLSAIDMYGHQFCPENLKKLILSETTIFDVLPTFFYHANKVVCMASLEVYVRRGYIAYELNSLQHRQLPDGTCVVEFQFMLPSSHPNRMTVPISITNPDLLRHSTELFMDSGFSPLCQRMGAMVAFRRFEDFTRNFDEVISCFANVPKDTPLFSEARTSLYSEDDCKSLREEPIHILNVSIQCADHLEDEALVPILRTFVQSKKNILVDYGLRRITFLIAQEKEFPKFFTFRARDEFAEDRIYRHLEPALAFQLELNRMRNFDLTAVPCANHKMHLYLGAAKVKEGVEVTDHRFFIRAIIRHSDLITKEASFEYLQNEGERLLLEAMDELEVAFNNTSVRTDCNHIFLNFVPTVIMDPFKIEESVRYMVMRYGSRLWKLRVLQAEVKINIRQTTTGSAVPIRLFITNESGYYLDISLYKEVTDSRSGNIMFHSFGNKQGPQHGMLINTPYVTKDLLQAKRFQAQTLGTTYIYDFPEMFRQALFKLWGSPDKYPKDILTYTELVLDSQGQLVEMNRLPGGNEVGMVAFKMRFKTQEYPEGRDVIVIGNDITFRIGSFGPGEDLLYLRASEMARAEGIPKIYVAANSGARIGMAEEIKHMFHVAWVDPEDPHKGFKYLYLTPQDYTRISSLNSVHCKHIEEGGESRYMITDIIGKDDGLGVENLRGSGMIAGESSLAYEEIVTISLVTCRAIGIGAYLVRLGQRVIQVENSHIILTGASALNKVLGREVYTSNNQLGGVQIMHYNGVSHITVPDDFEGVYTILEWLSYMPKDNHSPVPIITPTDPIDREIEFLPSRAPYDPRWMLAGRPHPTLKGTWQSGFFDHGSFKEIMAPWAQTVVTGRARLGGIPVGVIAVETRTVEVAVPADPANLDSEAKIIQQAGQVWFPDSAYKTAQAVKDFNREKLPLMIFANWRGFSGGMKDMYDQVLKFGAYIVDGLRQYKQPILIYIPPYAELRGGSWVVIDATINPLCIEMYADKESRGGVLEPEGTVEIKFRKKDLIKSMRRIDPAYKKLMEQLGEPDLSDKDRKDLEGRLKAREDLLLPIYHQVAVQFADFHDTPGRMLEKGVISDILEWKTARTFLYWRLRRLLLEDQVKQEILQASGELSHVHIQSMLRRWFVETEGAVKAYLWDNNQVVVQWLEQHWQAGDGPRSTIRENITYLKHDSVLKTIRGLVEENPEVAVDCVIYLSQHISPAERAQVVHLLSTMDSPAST

Row | SMILES | IC50 [1] [nM] | IC50 [2] [nM] | MIC [3, 6] [µg/mL] | MIC [4, 6] [µg/mL] | MIC [5, 6] [µg/mL] | other results
1 | COCCO[C@@H](Cn1c(=O)n(C2CCCN(C)C2=O)c(=O)c2c(C)c(-n3nccn3)sc21)c1cc(F)ccc1OC (stereo partly drawn) [Compound I-14, 1-((R)-2-(5-fluoro-2-methoxyphenyl)-2-(2-methoxy-ethoxy)ethyl)-5-methyl-3-(1-methyl-2-oxopiperidin-3-yl)-6-(2H-1,2,3-triazol-2-yl)thieno[2,3-d]pyrimidine-2,4(1H,3H)-dione] | 10 to 100 | 2 to 10 | – | – | – | –
2 | COCCO[C@@H](Cn1c(=O)n([C@]2(C)CCN(C)C2=O)c(=O)c2c(C)c(-n3nccn3)sc21)c1cc(F)ccc1OC [Compound I-146, 3-((R)-1,3-dimethyl-2-oxopyrrolidin-3-yl)-1-((R)-2-(5-fluoro-2-methoxyphenyl)-2-(2-methoxyethoxy)ethyl)-5-methyl-6-(2H-1,2,3-triazol-2-yl)thieno[2,3-d]pyrimidine-2,4(1H,3H)-dione] | > 1000 | > 1000 | – | – | – | –
3 | COc1ccc(F)cc1[C@H](Cn1c(=O)n([C@@H]2CCNC2=O)c(=O)c2c(C)c(-c3ncco3)sc21)O[C@H]1CC[C@@H](O)CC1 [Compound I-191, 1-((R)-2-(5-fluoro-2-methoxyphenyl)-2-(((1s, 4S)-4-hydroxycyclohexyl)oxy)ethyl)-5-methyl-6-(oxazol-2-yl)-3-((R)-2-oxopyrrolidin-3-yl)thieno[2,3-d]pyrimidine-2,4(1H,3H)-dione] | 0.7 to 2 | 0.7 to 2 | – | – | – | –
4 | COCCO[C@@H](Cn1c(=O)n([C@@]2(C)CCN(C)C2=O)c(=O)c2c(C)c(-n3nccn3)sc21)c1cc(F)ccc1OC [Compound I-148, 3-((S)-1,3-dimethyl-2-oxopyrrolidin-3-yl)-1-((R)-2-(5-fluoro-2-methoxyphenyl)-2-(2-methoxyethoxy)ethyl)-5-methyl-6-(2H-1,2,3-triazol-2-yl)thieno[2,3-d]pyrimidine-24(1H,3H)-dione] | > 1000 | > 1000 | – | – | – | –
5 | COc1ccc(F)cc1[C@H](Cn1c(=O)n([C@H]2CCN(C)C2=O)c(=O)c2c(C)c(-c3ncco3)sc21)O[C@H]1CC[C@@H](O)CC1 [Compound I-194, 1-((R)-2-(5-fluoro-2-methoxyphenyl)-2-(((1 s, 4S)-4-hydroxycyclohexyl)oxy)ethyl)-5-methyl-3-((S)-1-methyl-2-oxopyrrolidin-3-yl)-6-(oxazol-2-yl)thieno[2,3-d]pyrimidine-2,4(1H,3H)-dione] | 2 to 10 | 0.7 to 2 | – | – | – | –
6 | COc1ccc(F)cc1[C@H](Cn1c(=O)n(C2CCN(C(C)C)C2=O)c(=O)c2c(C)c(-n3nccn3)sc21)OC1CCOCC1 (stereo in doubt) [Compound I-138, 1-((R)-2-(5-fluoro-2-methoxyphenyl)-2-((tetrahydro-2H-pyran-4-yl)oxy)ethyl)-3-((S)-1-isopropyl-2-oxopyrrolidin-3-yl)-5-methyl-6-(2H-1,2,3-triazol-2-yl)thieno[2,3-d]pyrimidine-2,4(1H,3H)-dione] | 2 to 10 | – | 2.1 to 4 (≈ 3.35 to 6.38 µM) | – | – | MIC C. krusei ATCC 6258 [4, 6]: A (provided an MIC of 0.25-1.0 μg/mL); MIC C. albicans ATCC 90028 [5, 6]: A (provided an MIC of 0.25-1.0 μg/mL)
7 | COc1ccc(F)cc1[C@H](Cn1c(=O)n([C@@H]2CCCNC2=O)c(=O)c2c(C)c(-c3ncco3)sc21)OCCO [Compound I-64, 1-((R)-2-(5-fluoro-2-methoxyphenyl)-2-(2-hydroxy-ethoxy)ethyl)-5-methyl-6-(oxazol-2-yl)-3-((R)-2-oxopiperidin-3-yl)thieno[2,3-d]pyrimidine-2,4(1H,3H)-dione] | 10 to 100 | – | 2.1 to 4 (≈ 3.76 to 7.16 µM) | 2.1 to 4 (≈ 3.76 to 7.16 µM) | 2.1 to 4 (≈ 3.76 to 7.16 µM) | –
8 | COCCO[C@@H](Cn1c(=O)n([C@H]2CCN(C)C2=O)c(=O)c2c(C)c(-n3nccn3)sc21)c1cc(F)ccc1OCC#N [Compound I-160, 2-(4-fluoro-2-((R)-1-(2-methoxyethoxy)-2-(5-methyl-3-((S)-1-methyl-2-oxopyrrolidin-3-yl)-2,4-dioxo-6-(2H-1,2,3-triazol-2-yl)-3,4-dihydrothieno[2,3-d]pyrimidin-1(2H)-yl)ethyl)phenoxy)acetonitrile] | 10 to 100 | – | – | – | – | MIC [3]: 2.1 to 4 µg/mL (≈ 3.51 to 6.69 µM); MIC [4]: 2.1 to 4 µg/mL (≈ 3.51 to 6.69 µM); MIC [5]: 2.1 to 4 µg/mL (≈ 3.51 to 6.69 µM)
9 | COc1ccc(F)cc1[C@H](Cn1c(=O)n(C2CCN(C)C2=O)c(=O)c2c(C)c(-n3nccn3)sc21)OCCO (stereo partly drawn) [Compound I-6, 1-((R)-2-(5-fluoro-2-methoxyphenyl)-2-(2-hydroxy-ethoxy)ethyl)-5-methyl-3-(-methyl-2-oxopyrrolidin-3-yl)-6-(2H-1,2,3-triazol-2-yl)thieno[2,3-d]pyrimidine-2,4(1H,3H)-dione] | 10 to 100 | – | 2.1 to 4 (≈ 3.76 to 7.16 µM) | 2.1 to 4 (≈ 3.76 to 7.16 µM) | 2.1 to 4 (≈ 3.76 to 7.16 µM) | –
10 | COc1ccc(F)cc1[C@H](Cn1c(=O)n([C@@H]2CCN(C(C)C)C2=O)c(=O)c2c(C)c(-n3nccn3)sc21)OC1CCOCC1 [Compound I-139, 1-((R)-2-(5-fluoro-2-methoxyphenyl)-2-((tetrahydro-2H-pyran-4-yl)oxy)ethyl)-3-((R)-1-isopropyl-2-oxopyrrolidin-3-yl)-5-methyl-6-(2H-1,2,3-triazol-2-yl)thieno[2,3-d]pyrimidine-2,4(1H,3H)-dione] | 2 to 10 | – | – | – | – | MIC C. parapsilosis ATCC 22019 [3, 6]: B (provided an MIC of 1.1-2.0 μg/mL); MIC C. krusei ATCC 6258 [4, 6]: B (provided an MIC of 1.1-2.0 μg/mL); MIC C. albicans ATCC 90028 [5, 6]: C (provided an MIC of 2.1-4.0 μg/mL)
11 | CCN1CCCC(n2c(=O)c3c(C)c(-n4nccn4)sc3n(C[C@H](OCCO)c3cc(F)ccc3OC)c2=O)C1=O (stereo partly drawn) [Compound I-19, 3-(1-ethyl-2-oxopiperidin-3-yl)-1-((R)-2-(5-fluoro-2-methoxyphenyl)-2-(2-hydroxyethoxy)ethyl)-5-methyl-6-(2H-1,2,3-triazol-2-yl)thieno[2,3-d]pyrimidine-2,4(1H,3H)-dione] | 10 to 100 | – | 2.1 to 4 (≈ 3.58 to 6.82 µM) | 2.1 to 4 (≈ 3.58 to 6.82 µM) | 2.1 to 4 (≈ 3.58 to 6.82 µM) | –
12 | CCN1CC[C@H](n2c(=O)c3c(C)c(-n4nccn4)sc3n(C[C@H](OC3CCOCC3)c3cc(F)ccc3OC)c2=O)C1=O [Compound I-150, 3-((S)-1-ethyl-2-oxopyrrolidin-3-yl)-1-((R)-2-(5-fluoro-2-methoxyphenyl)-2-((tetrahydro-2H-pyran-4-yl)oxy)ethyl)-5-methyl-6-(2H-1,2,3-triazol-2-yl)thieno[2,3-d]pyrimidine-2,4(1H,3H)-dione] | 2 to 10 | – | 0.25 to 1 (≈ 0.408 to 1.63 µM) | 0.075 to 0.24 (≈ 0.122 to 0.392 µM) | 0.25 to 1 (≈ 0.408 to 1.63 µM) | –
13 | COc1ccc(F)cc1[C@H](Cn1c(=O)n([C@@]2(C)CCC(=O)NC2)c(=O)c2c(C)c(-n3nccn3)sc21)OCCO [Compound I-135, 1-((R)-2-(5-fluoro-2-methoxyphenyl)-2-(2-hydroxy-ethoxy)ethyl)-5-methyl-3-((S)-3-methyl-6-oxopiperidin-3-yl)-6-(2H-1,2,3-triazol-2-yl)thieno[2,3-d]pyrimidine-2,4(1H,3H)-dione] | 10 to 100 | – | 2.1 to 4 (≈ 3.67 to 6.99 µM) | 2.1 to 4 (≈ 3.67 to 6.99 µM) | 2.1 to 4 (≈ 3.67 to 6.99 µM) | –
14 | COc1ccccc1[C@H](Cn1c(=O)n(C2CCN(C)C2=O)c(=O)c2c(C)c(-c3ncco3)sc21)OC1CCOCC1 (stereo partly drawn) [Compound I-57, 1-((R)-2-(2-methoxyphenyl)-2-((tetrahydro-2H-pyran-4-yl)oxy)ethyl)-5-methyl-3-(1-methyl-2-oxopyrrolidin-3-yl)-6-(oxazol-2-yl)thieno[2,3-d]pyrimidine-2,4(1H,3H)-dione] | 10 to 100 | – | 2.1 to 4 (≈ 3.62 to 6.89 µM) | 1.1 to 2 (≈ 1.89 to 3.44 µM) | 1.1 to 2 (≈ 1.89 to 3.44 µM) | –
15 | COc1ccc(F)cc1[C@H](Cn1c(=O)n(C2CCCNC2=O)c(=O)c2c(C)c(-c3ncco3)sc21)OC1CCOCC1 (stereo partly drawn) [Compound I-51, 1-((R)-2-(5-fluoro-2-methoxyphenyl)-2-((tetrahydro-2H-pyran-4-yl)oxy)ethyl)-5-methyl-6-(oxazol-2-yl)-3-(2-oxopiperidin-3-yl)thieno[2,3-d]pyrimidine-2,4(1H,3H)-dione] | 10 to 100 | – | 2.1 to 4 (≈ 3.51 to 6.68 µM) | 2.1 to 4 (≈ 3.51 to 6.68 µM) | 1.1 to 2 (≈ 1.84 to 3.34 µM) | –
16 | COc1ccc(F)cc1[C@H](Cn1c(=O)n(C2CCCNC2=O)c(=O)c2c(C)c(-n3nccn3)sc21)OCCO (stereo partly drawn) [Compound I-17, 1-((R)-2-(5-fluoro-2-methoxyphenyl)-2-(2-hydroxy-ethoxy)ethyl)-5-methyl-3-(2-oxopiperidin-3-yl)-6-(2H-1,2,3-triazol-2-yl)thieno[2,3-d]pyrimidine-2,4(1H,3H)-dione] | 2 to 10 | – | 2.1 to 4 (≈ 3.76 to 7.16 µM) | 2.1 to 4 (≈ 3.76 to 7.16 µM) | 2.1 to 4 (≈ 3.76 to 7.16 µM) | –
